Among the data in ChEMBL document CHEMBL4184108, “Bistachybotrysins A-C, three phenylspirodrimane dimers with cytotoxicity from Stachybotrys chartarum” (Bioorg Med Chem Lett, 2018) are IC50 values, retold here.

Common to all, as to type: functional, cell-based
One assay has as its system NCI-H460. Put plainly: Cytotoxicity against human NCI-H460 cells after 96 hrs by MTT assay. The conditions noted are these: NCI-H460, 96 h.
The next assay deals with Daoy. The assay can be described thus: Cytotoxicity against human DaOY cells after 96 hrs by MTT assay.
For a further assay, the system named is BGC-823. The assay can be described thus: Cytotoxicity against human BGC823 cells after 96 hrs by MTT assay. The conditions noted are these: BGC-823, 96 h.
The next assay relates to HepG2. The assay can be described thus: Cytotoxicity against human HepG2 cells after 96 hrs by MTT assay. The conditions noted are these: HepG2, 96 h.
The test system of another assay is HCT-116. The assay can be described thus: Cytotoxicity against human HCT116 cells after 96 hrs by MTT assay. The conditions noted are these: HCT-116, 96 h.

For `C[C@@H]1CC[C@H]2C(C)(C)[C@H](O)[C@H](O)C[C@]2(C)[C@@]12Cc1c(O)cc3c(c1O2)C[C@H]1OCc2cc(O)c4c(c2[C@H](O1)[C@H]3O)O[C@]1(C4)[C@H](C)CC[C@H]2C(C)(C)[C@H](O)[C@H](O)C[C@@]21C`, the IC50 with NCI-H460 is 12.3 µM; in the assay on Daoy, 14.6 µM; in the assay on BGC-823 it was 19.2 µM; in the assay with HepG2, 19.3 µM; in the assay with HCT-116, 19.1 µM.

With `CC(=O)O[C@@H]1[C@H](O)C[C@@]2(C)[C@@H](CC[C@@H](C)[C@]23Cc2c(O)cc4c(c2O3)C[C@H]2OCc3cc(O)c5c(c3[C@H](O2)[C@H]4O)O[C@]2(C5)[C@H](C)CC[C@H]3C(C)(C)[C@H](O)CC[C@@]32C)C1(C)C`, the IC50 in the assay on NCI-H460 came to 5.5 µM; in the assay with Daoy, 4.2 µM; in the assay on BGC-823, 6.6 µM; in the assay with HepG2, 19.3 µM; in the assay with HCT-116 it was 18 µM.

As to `C[C@@H]1CC[C@H]2C(C)(C)[C@H](O)CC[C@]2(C)[C@@]12Cc1c(O)cc3c(c1O2)[C@@H]1O[C@@H](Cc2c(cc(O)c4c2O[C@]2(C4)[C@H](C)CC[C@H]4C(C)(C)[C@H](O)[C@H](O)C[C@@]42C)[C@@H]1O)OC3`, the IC50 in the assay with NCI-H460 came out at 7.5 µM; in the assay with Daoy, 2.8 µM; in the assay on BGC-823 it was 14.2 µM; in the assay on HepG2, 11.9 µM; in the assay on HCT-116, 6.7 µM.

Turning to `CC(=O)O[C@H]1C(=O)[C@@]2(C)[C@H]([C@H](OC(=O)c3ccccc3)[C@]3(O)C[C@H](OC(=O)[C@H](O)[C@@H](NC(=O)c4ccccc4)c4ccccc4)C(C)=C1C3(C)C)[C@]1(OC(C)=O)CO[C@@H]1C[C@@H]2O` [PACLITAXEL], the IC50 with NCI-H460 was 0.004 µM; in the assay with Daoy it was 0.002 µM; in the assay with BGC-823, 0.002 µM; in the assay with HepG2, 0.0102 µM; in the assay with HCT-116, 0.038 µM.
